This is an account of results in patent US20060003989A1, “Compositions and methods using acetylcholinesterase (ACE) inhibitors to treat central nervous system (CNS) disorders in mammals” (priority 2002, published 2006).

Several values for one entry are separate records, joined by “and”; a condition that tells them apart may be missing. Identical values can stand only once. Counter-ions that a name gives are not always drawn.

One series deals with cholinesterase. The following applies: in rats; cited from earlier work.
The nature of series [1]: Solubility test in purified water (concentration by HPLC).
For series [2] the following is noted: cited from earlier work.
Series [3] can be described thus: Intranasal vs oral galantamine PK (plasma) in ferrets.
A further series deals with ferrets. The series can be described thus: Emetic response assay in ferrets. The conditions noted are these: observed for 4 hours. The protocol: • 8 naïve ferrets/dosing group; Nasal versus Oral • Emetic Response Assay • The assay was based on a validated method. Ferrets were monitored and observed for episodes of retching and/or vomiting for 4 hours. • Two formulations dosed: • Emetic Response Assay • The assay was based on a validated method.

Series [4] is described as follows: Intranasal vs oral galantamine PK in canine subject (plasma, CSF). The following applies: dog, 0.8 mg/kg; for Tmax: plasma.
The nature of series [5]: Rivastigmine intranasal vs oral PK in rats (CSF and plasma). The conditions noted are these: single intranasal dose.
Protocol: The formulation is administered intranasally or by gastric insertion of a capsule containing the commercial formulation to 12 groups of 6 rats prepped with an indwelling jugular cannula and heparin lock. […] Subsequently, each subject undergoes lumbar puncture with local anaesthesia (xylocalne s.c.), with the retrieval of 50 uL of cerebralspinal fluid (CSF). A paired blood sample from each animal is collected. By assigning groups to different timepoints, the whole PK curve can be assembled. The first CSF sample is collected 5 minutes post dosing and subsequent samples were collected at 20, 50, 75, 100 and 400 minutes.
CSF samples are frozen until analysis.
Series [6] concerns in vitro epithelial tissue model. As to the kind of experiment: TER in in vitro epithelial tissue model with PN159 and galantamine lactate. The following applies: 25, 50, 100 μM PN159 in the presence of 40 mg/ml galantamine lactate; controls applied apically. Format: cell-based.

As to `O=C(CCC1CCN(Cc2ccccc2)CC1)c1ccc2c(c1)NCCCC2` [TAK-147, 3-[1-(phenylmethyl)-4-piperidinyl]-1-(2,3,4,5-tetrahydro-1H-1-benzazepin-8-yl)-1-propanone], in the series on cholinesterase, the “minimal therapeutic concentration (MTC)” value is on record as 1.1 nmol/gm.

For `COc1ccc2c3c1O[C@H]1C[C@@H](O)C=C[C@@]31CCN(C)C2.O=C(O)[C@H](O)[C@@H](O)[C@H](O)[C@H](O)CO` [galantamine gluconate], the “solubility in water” value in series [1] is roughly 1390 mM.

For the compound `COc1ccc2c3c1O[C@H]1C[C@@H](O)C=C[C@@]31CCN(C)C2` [galantamine hydrobromide], the “generally reported solubility in water” value in series [2] is 50 mM. In addition, in series [1] (purified water, thermodynamic from solid), the solubility was ~35000 µg/mL and ~121000 µM. For `CC(O)C(=O)O.COc1ccc2c3c1O[C@H]1C[C@@H](O)C=C[C@@]31CCN(C)C2` [galantamine lactate], the “solubility in water” value in series [1] is roughly 1390 mM. On to `COc1ccc2c3c1O[C@H]1C[C@@H](O)C=C[C@@]31CCN(C)C2` [galantamine], for which the bioavailability in series [3] (ferret, plasma, other: intranasal compared to oral) is roughly 70%. Moreover, in series [3] (ferrets, intranasal 200 mg/ml formulation vs Reminyl oral solution), the “Tmax, plasma, intranasal compared to oral” value was “decreased Tmax”. In series [3] (ferrets, intranasal vs oral), the “Cmax, plasma, intranasal compared to oral” value is given as “about 4 fold”. The “incidence of retching / emesis, intranasal vs oral” value with ferrets is “dramatic reduction in emesis”. Also, the “Tmax in CSF, intranasal vs oral” value in series [4] was “same trend was observed in the CSF”. The Tmax in series [4] (inhaled or intranasal) was roughly 0.5 h; in series [4] (po) it was 2 to 3 h. Take `CCN(C)C(=O)Oc1cccc([C@H](C)N(C)C)c1` [rivastigmine]: the “rivastigmine concentration in CSF after intranasal administration” value in series [5] was “peaks at a level higher than therapeutic levels reported for plasma following oral dosage in man”.

Turning to `Nc1c2c(nc3ccccc13)CCCC2` [tacrine], the “minimal therapeutic concentration (MTC)” value in the series on cholinesterase was 3.5 nmol/gm. Take triton X: the “effect on TER” value in series [6] is “did reduce TER”.
